Experiments:
Pgc-1α gene = assay: Gene expression in brown adipose tissue by quantitative PCR, high-fat diet model; format: in vivo, mice (C57BL/6J); conditions: isoxanthohumol 30 or 60 mg/kg/day oral, 14 days
Text: (§1) Using the high-fat diet model, the effect of isoxanthohumol intake on expression of a gene related to fat burning was studied by the following procedure.
(§2) Thirty-two mice (C57BL/6J, male, 8 weeks of age, CLEA Japan, Inc.) were purchased and acclimatized for about one week. Then, the mice were divided into groups (n=8 in each group) in the group structure shown in Table 2 by the stratified continuous randomization method based on body weight. […] In Table 2, “Regular diet” is control diet “D12450J” (Research Diets), and “60 kcal % High-fat diet” is very high-fat diet “D12492” (Research Diets). Isoxanthohumol as the test substance was the standard sample (purity of 95% or higher) obtained in Preparation Example 1. […]
(§3) The test period was 14 days. […] The amount of the test substance and the volume of the solution were calculated based on the latest body weight on the administration date. […]
(§4) Using the extracted liver and brown adipose tissue, the effect of isoxanthohumol intake on expression of multiple genes related to lipid metabolism was studied. […] Then, cDNAs were synthesized using High-Capacity cDNA Reverse Transcription Kit (product name, Life Technologies Corporation), and the expression levels of genes shown in Table 3 were examined by quantitative PCR (TaqMan probe method) using Fast Universal PCR Master Mix (product name, Life Technologies Corporation). […]

Ucp1 gene = assay: as above; format: in vivo, mice (C57BL/6J); conditions: isoxanthohumol 30 or 60 mg/kg/day oral, 14 days
Text: as §1, §2, §3, §4

[1] = system: mouse preadipocyte (3T3-L1); conditions: 3T3-L1, concentration without cytotoxicity; cited from earlier work
high-fat diet model = assay: Measurement of triglyceride (TG) content in liver; format: in vivo, Mice (C57BL/6J); conditions: livers of Example 1
Method: The neutral fat content (also referred to as “triglyceride content” or “TG content”) in the liver was measured using the liver extracted in Example 1. Specifically, the extracted liver was cut to obtain a section of about 30 mg, and 1 mL of a mixed solution containing methanol (Nacalai Tesque, Inc.) and chloroform (Nacalai Tesque, Inc.) at a ratio of 1:1 was added to the section which was then crushed with a bead beater, whereby triglyceride in the liver was extracted. After centrifugation (12000 g, for 15 minutes), the supernatant was collected, the solution was distilled off, and isopropanol was added for re-dissolution, whereby a sample was prepared. The triglyceride content in the sample was measured using Triglyceride E Test Wako (Wako), and the triglyceride content (mg/g) in the liver per unit weight was calculated. The data was presented as average f standard error. Student's t-test was used as a statistical test, and a difference with p<0.05 was considered significant.

[2] = Solubility of isoxanthohumol in various solvents under ice cooling conditions (Experiment B); format: physicochemical; conditions: for solubility relative to aqueous solution without γ-cyclodextrin: ice cooling
Text: The solubility of each of the standard samples of xanthohumol and isoxanthohumol in water (Experiment A) and various solvents (Experiment B) under ice cooling conditions was studied to evaluate the suitability for beverage applications. Xanthohumol and isoxanthohumol were the standard samples obtained in Preparation Example 1 (purity of 95% or higher).
Distilled water, a hop extract, and 0.2% (w/v) or 1.0% (w/v) aqueous solution of β-cyclodextrin or γ-cyclodextrin (both Nacalai Tesque, Inc.) were prepared as solvents to study the solubility of isoxanthohumol under ice cooling conditions. As for the hop extract, hops (Saaz) that had been crushed into pellets were extracted with distilled water in an amount 10 times the weight of the pellets by shaking at room temperature for about 60 minutes, and the filtrate obtained by suction filtration was used for the test. The isoxanthohumol concentration in the hop extract was less than 0.5 ppm. A sample containing a solvent and isoxanthohumol having a weight corresponding to 0.2% (w/v) of the solvent was prepared for each of the above solvents, and the standard sample was allowed to dissolve in water as much as possible by stirring in a vortex mixer for 10 seconds or longer and shaking for about 60 minutes under ice cooling conditions. Centrifugation and quantitative analysis were performed as in Experiment A to evaluate the solubility of isoxanthohumol in each solvent.

[3] = heating; isoxanthohumol at 100° C.; cited from earlier work

COc1cc(O)c(CC=C(C)C)c2c1C(=O)CC(c1ccc(O)cc1)O2 (centres unmarked) [isoxanthohumol]
Pgc-1α gene expression in the brown adipose tissue (Pgc-1α gene): significant increase
expression level of Ucp1 gene in brown adipose tissue (Ucp1 gene): increase in expression level
differentiation of the cells into adipocytes [1]: did not suppress differentiation
neutral fat (triglyceride) content in the liver (high-fat diet model; isoxanthohumol-administered group vs high-fat diet group): significantly lower
action on neutral fat content in the liver compared with xanthohumol (high-fat diet model): stronger than that of xanthohumol
solubility relative to aqueous solution without γ-cyclodextrin ([2]; 0.2% (w/v) γ-cyclodextrin): about 5 times
solubility relative to aqueous solution without γ-cyclodextrin ([2]; 1.0% (w/v) γ-cyclodextrin): about 18 times
Solubility (ice cooling conditions) ([2]; solvent: 0.2% β-Cyclodextrin): 18.4 ppm
Solubility (ice cooling conditions) ([2]; solvent: 0.2% γ-Cyclodextrin): 33.6 ppm
Solubility (ice cooling conditions) ([2]; solvent: 1.0% β-Cyclodextrin): 52.0 ppm
Solubility (ice cooling conditions) ([2]; solvent: 1.0% γ-Cyclodextrin): 115.5 ppm
Solubility (ice cooling conditions) ([2]; solvent: Distilled water): 6.3 ppm
Solubility (ice cooling conditions) ([2]; solvent: Hop extract): 13.7 ppm
thermal stability [3]: stable even at a high temperature of 100 °C

— patent publication US11066629B2, “Lipid metabolism-promoting composition including isoxanthohumol” (SUNTORY HOLDINGS LIMITED, priority 2016, dated 2021)
